Consider 23 molecules from patent publication US7417053B2, “Pyrazolo[1,5-a]pyridine derivatives or pharmaceutically acceptable salts thereof” (Teijin Pharma Limited, priority 2005, dated 2008).

Counter-ions that a name gives are not always drawn. Some results are limits rather than exact numbers.

One may read the IC50 as the concentration that gives 50% inhibition.

In the experiment the target is recombinant human MAPKAP-K2 (Homo sapiens, UniProt P49137). Description: Inhibitory activity against MAPKAP-K2 enzyme (33P-ATP peptide phosphorylation). In kind it is biochemical. As to conditions: recombinant human MAPKAP-K2, ATP 20 μmol/L solution, room temperature 30 min; read-out: Activity Strength (MAPKAP-K2 IC50 value). How it is done: General Measurement Method for Determining the Inhibitory Activity Against MAPKAP-K2 enzyme
recombinant human MAPKAP-K2, sequence (P49137 whole entry): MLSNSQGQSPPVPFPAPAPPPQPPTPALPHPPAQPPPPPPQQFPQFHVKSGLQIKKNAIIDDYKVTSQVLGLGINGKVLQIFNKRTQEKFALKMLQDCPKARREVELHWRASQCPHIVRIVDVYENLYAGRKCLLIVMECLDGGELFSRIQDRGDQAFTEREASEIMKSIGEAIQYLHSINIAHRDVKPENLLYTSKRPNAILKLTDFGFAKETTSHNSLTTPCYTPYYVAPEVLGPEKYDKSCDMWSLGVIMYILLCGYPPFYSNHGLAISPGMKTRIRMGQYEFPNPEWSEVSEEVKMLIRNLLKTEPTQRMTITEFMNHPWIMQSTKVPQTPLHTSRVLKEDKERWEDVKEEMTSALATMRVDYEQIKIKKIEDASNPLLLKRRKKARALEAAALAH
(Preparation of Solutions of Compounds)
Each compound was dissolved in DMSO to prepare a solution with a concentration of 20 mmol/L and this solution was stored at −20° C. This stock solution was diluted with DMSO successively to prepare solutions with 200-fold concentrations of a necessary range. These solutions were further diluted with water at a ratio of 1:20 to prepare solutions with 10-fold concentrations of a necessary range. Each of these solutions (5 μL) was used for each reaction in 50 μL-scale. Through the dilution series of all compounds, the final DMSO concentration was kept at 0.5%. Conventional tests for the compounds were carried out at a final concentration range from 100 μmol/L to 0.03 μmol/L. but in some cases, tests were carried out at lower concentrations, depending on activity.
(Measurements of MAPKAP-K2 Enzyme Activities)
To a 5% DMSO aqueous solution (5 μL) of a test compound, a solution (25 μL) containing a peptide substrate [peptide substrate 60 μmol/L, ATP 20 μmol/L, Tris buffer 60 mmol/L (pH 7.5), EGTA 0.2 mmol/L, β-mercaptoethanol 0.2%, magnesium acetate 20 mmol/L, [γ-33P]ATP 0.1 μCi (specific radioactivity ca. 110 TBq/mmol)] was added. The reaction was initiated by adding a solution (20 μL) containing MAPKAP-K2 enzyme [recombinant human MAPKAP-K2 10 mU, Tris buffer […] (pH 7.5), EGTA 0.1 mmol/L, β-mercaptoethanol 0.1%, BSA 0.1%]. After the reaction was carried out at room temperature for 30 min, 200 mmol/L phosphoric acid (50 μL) was added to quench the reaction, and 90 μL of the reaction mixture was adsorbed on a multiscreen PH plate (Millipore). The plate was washed with 100 mmol/L phosphoric acid. After the plate was dried, 30 μL of MicroScint-O (Perkin-Elmer) was added, and the count per minute was measured on a scintillation counter to determine the inhibitory activity. The peptide substrate was Lys-Lys-Leu-Asn-Arg-Thr-Leu-Ser-Val-Ala.
• % Reference=(X−B)/(Tot−B)×100 • % Inhibition=100−% Reference • X represents count per minute of the well with a test compound applied. • B represents count per minute of the well without the enzyme. • Tot represents count per minute of the well with only DMSO solvent and no test compound applied. (Calculation of MAPKAP-K2 Inhibitory Activity) • IC50 value represents a concentration of compound at which 50% inhibition is observed.
On to `Cc1c(N[C@H]2CCCNC2)c(C#N)c2ccnn2c1Nc1ccccc1` [Compound 111, 5-[((3S)-(3-Piperidyl))amino]-6-methyl-7-(phenylamino)pyrazolo[1,5-a]pyridine-4-carbonitrile trifluoroacetate salt], for which the IC50 is under 0.2 µM.
Take `CCOc1ccc(Nc2c(C)c(NCC3CCNC3)c(C#N)c3ccnn23)cc1` (centres unmarked) [Compound 112, 7-[(4-Ethoxyphenyl)amino]-6-methyl-5-[(pyrrolidin-3-ylmethyl)amino]pyarzolo[1,5-a]pyridine-4-carbonitrile trifluoroacetate salt]: the half-inhibitory concentration (IC50) was in the range of 1 to 10 µM.
For the molecule `CCOc1ccc(Nc2c(C)c(NCCC3CCCCN3)c(C#N)c3ccnn23)cc1` (centres unmarked) [Compound 113, 7-[(4-Ethoxyphenyl)amino]-6-methyl-5-[(2-(2-piperidyl)ethyl)amino]pyrazolo[1,5-a]pyridine-4-carbonitrile trifluoroacetate salt], the IC50 was 10 to 100 µM.
Then `CCOc1ccc(Nc2c(C)c(NCC3CCCN3)c(C#N)c3ccnn23)cc1` (centres unmarked) [Compound 114, 7-[(4-Ethoxyphenyl)amino]-6-methyl-5-[(pyrrolidin-2-ylmethyl)amino]pyrazolo[1,5-a]pyridine-4-carbonitrile trifluoroacetate salt], with 1 to 10 µM.
Then `CCOc1ccc(Nc2c(C)c(N[C@H]3CC[C@H](NCc4ccccc4)CC3)c(C#N)c3ccnn23)cc1` [Compound 115, 7-[(4-Ethoxyphenyl)amino]-6-methyl-5-[trans-{4-(benzylamino)cyclohexyl]amino}pyrazolo[1,5-a]pyridine-4-carbonitrile trifluoroacetate salt], with 0.2 to 1 µM.
Then `CCOc1ccc(Nc2c(C)c(N[C@H]3CC[C@H](NCCCc4ccccc4)CC3)c(C#N)c3ccnn23)cc1` [Compound 116, 7-[(4-Ethoxyphenyl)amino]-6-methyl-5-({trans-4-[(3-phenylpropyl)amino]cyclohexyl}amino)pyrazolo[1,5-a]pyridine-4-carbonitrile trifluoroacetate salt], with 0.2 to 1 µM; and `Cc1c(N[C@H]2CCCNC2)c(C#N)c2ccnn2c1Nc1ccc2ncsc2c1` [Compound 117, 5-[((3S)-3-Piperidyl)amino]-7-(benzothiazol-6-ylamino)-6-methylpyrazolo[1,5-a]pyridine-4-carbonitrile trifluoroacetate salt], with under 0.2 µM.
Regarding `CCc1nc2ccc(Nc3c(C)c(N[C@H]4CCCNC4)c(C#N)c4ccnn34)cc2s1` [Compound 118, 5-[((3S)-3-Piperidyl)amino]-7-[(2-ethylbenzothiazol-6-yl)amino]-6-methylpyrazolo[1,5-a]pyridine-4-carbonitrile trifluoroacetate salt], the IC50 is under 0.2 µM.
Then `CCOc1ccc(Nc2c(C)c(NCC3CCCCN3)c(C#N)c3ccnn23)cc1` (centres unmarked) [Compound 119, 7-[(4-Ethoxyphenyl)amino]-6-methyl-5-[(2-piperidylmethyl)amino]pylrazolo[1,5-a]pyridine-4-carbonitrile trifluoroacetate salt], with 1 to 10 µM.
Then `CCOc1ccc(Nc2c(C)c(NCCCNC3CCCCC3)c(C#N)c3ccnn23)cc1` [Compound 120, 5-{[3-(Cyclohexylamino)propyl]amino}-7-[(4-ethoxyphenyl)amino]-6-methylpyrazolo[1,5-a]pyridine-4-carbonitrile trifluoroacetate salt], with 1 to 10 µM; and `CCCc1c(N[C@H]2CCCNC2)c(C#N)c2ccnn2c1Nc1ccc(OCC)cc1` [Compound 121, 5-[(3S)-3-Piperidylamino]-7-(4-ethoxyphenylamino)-6-propylpyrazolo[1,5-a]pyridine-4-carbonitrile], with under 0.2 µM.
Turning to `CCCc1c(N[C@H]2CC[C@H](N)CC2)c(C#N)c2ccnn2c1Nc1ccc(OCC)cc1` [Compound 122, 5-(trans-4-Aminocyclohexylamino)-7-(4-ethoxyphenylamino)-6-propylpyrazolo[1,5-a]pyridine-4-carbonitrile], the IC50 is under 0.2 µM.
Then `CCOc1ccc(Nc2c(C(C)C)c(N[C@H]3CCCNC3)c(C#N)c3ccnn23)cc1` [Compound 123, 5-[(3S)-3-Piperidylamino]-7-(4-ethoxyphenylamino)-6-(methylethyl)pyrazolo[1,5-a]pyridine-4-carbonitrile], with under 0.2 µM; and `CCOc1ccc(Nc2c(C(C)C)c(N[C@H]3CC[C@H](N)CC3)c(C#N)c3ccnn23)cc1` [Compound 124, 5-(trans-4-Aminocyclohexylamino)-7-(4-ethoxyphenylamino)-6-(methylethyl)pyrazolo[1,5-a]pyridine-4-carbonitrile], with under 0.2 µM; and `CCOc1ccc(Nc2c(C)c(N[C@H]3CC[C@H](NCCc4ccccc4)CC3)c(C#N)c3ccnn23)cc1` [Compound 125, 7-[(4-Ethoxyphenyl)amino]-6-methyl-5-(trans-{4-[(2-phenylethyl)amino]cyclohexyl}amino]pyrazolo[1,5-a]pyridine-4-carbonitrile trifluoroacetate salt], with 0.2 to 1 µM.
As for `CCOc1ccc(Nc2c(C)c(N[C@H]3CC[C@H](NCC4CCCCC4)CC3)c(C#N)c3ccnn23)cc1` [Compound 126, 5-({4-[(Cyclohexylmethyl)amino]cyclohexyl}amino)-7-[(4-ethoxyphenyl)amino]-6-methylpyrazolo[1,5-a]pyridine-4-carbonitrile trifluoroacetate salt], the figure is 0.2 to 1 µM.
In the case of `CCOc1ccc(Nc2c(C)c(NC3CNCc4ccccc43)c(C#N)c3ccnn23)cc1` (centres unmarked) [Compound 127, 7-[(4-Ethoxyphenyl)amino]-6-methyl-5-[4-(1,2,3,4-tetrahydroisoquinolyl)amino]pyrazolo[1,5-a]pyridine-4-carbonitrile trifluoroacetate salt], the IC50 is 1 to 10 µM.
As for `CCOc1ccc(Nc2c(C)c(NCC3CCCNC3)c(C#N)c3ccnn23)cc1` (centres unmarked) [Compound 128, 7-[(4-Ethoxyphenyl)amino]-6-methyl-5-[(3-piperidylmethyl)amino]pyrazolo[1,5-a]pyridine-4-carbonitrile trifluoroacetate salt], the figure is 1 to 10 µM; as for `CCOc1ccc(Nc2c(C)c(NCCC3CCCN3)c(C#N)c3ccnn23)cc1` (centres unmarked) [Compound 129, 7-[1(4-Ethoxyphenyl)amino]-6-methyl-5-[2-(pyrrolidin-2-ylethyl)amino]pyrazolo[1,5-a]pyridine-4-carbonitrile trifluoroacetate salt], 1 to 10 µM.
As for `CCOc1ccc(Nc2c(C3CC3)c(N[C@H]3CCCNC3)c(C#N)c3ccnn23)cc1` [Compound 130, 5-[(3S)-3-Piperidylamino]-7-(4-ethoxyphenylamino)-6-cyclopropylpyrazolo[1,5-a]pyridine-4-carbonitrile], the figure is 0.2 to 1 µM; as for `CCOc1ccc(Nc2c(C3CC3)c(N[C@H]3CC[C@H](N)CC3)c(C#N)c3ccnn23)cc1` [Compound 131, 5-(trans-4-Amionocyclohexylamino)-7-(4-ethoxyphenylamino)-6-cyclopropylpyrazolo[1,5-a]pyridine-4-carbonitrile], under 0.2 µM.
On to `CCOc1ccc(Nc2c(C)c(NCCCCCCN)c(C#N)c3ccnn23)cc1` [Compound 132, 5-[(6-Amionohexyl)amino]-7-[(4-ethoxyphenyl)amino]-6-methylpyrazolo[1,5-a]pyridine-4-carbonitrile trifluoroacetate salt], for which the IC50 lay in the range of 10 to 100 µM.
As for `CCOc1ccc(Nc2c(C)c(NCCC3CCCN3C)c(C#N)c3ccnn23)cc1` (centres unmarked) [Compound 133, 7-[(4-Ethoxyphenyl)amino]-6-methyl-5-{[2-(1-methylpyrrolidin-2-yl)ethyl]amino}pyrazolo[1,5-a]pyridine-4-carbonitrile trifluoroacetate salt], the figure is 10 to 100 µM.
